Assay results taken from ChEMBL document CHEMBL1201862, “PubChem BioAssay data set” (2004).
Active and inactive are the calls of the source.

Columns and labels:
[1] = target: Voltage-gated inwardly rectifying potassium channel KCNH2 (Homo sapiens, UniProt Q12809); details: Potency;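 also: confirmatory quantitative high-throughput screen measuring inhibition of hERG channel activity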
[2] = viability loss of HMLE_sh_eGFP cells – cell-based, luminescence, counter-screen for HMLE_sh_ECad selective toxicity project, dose response (AID 463074); type: functional, Homo sapiens;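 also: HMLE human mammary epithelial cells expressing control shRNA against eGFP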
[3] = Luminescence Cell-Based Dose Retest to Confirm Inhibitors of Cancer Stem Cells. [Related pubchem assays (depositor defined):AID2717, AID2721]; type: functional; details: Homo sapiens
Beta Lactamase = Beta Lactamase (Pseudomonas aeruginosa, UniProt Q932Y6); experiment: BLA reporter interference, concentration series – BLA reporter cells, FRET fluorescence, artefact control for TLR9-MyD88 binding inhibitor project, dose response (AID 588341); type: cell-based;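 also: cell based assay in CHO-K1 cells stably expressing beta-lactamase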
Sequence of Beta Lactamase (Q932Y6 whole entry): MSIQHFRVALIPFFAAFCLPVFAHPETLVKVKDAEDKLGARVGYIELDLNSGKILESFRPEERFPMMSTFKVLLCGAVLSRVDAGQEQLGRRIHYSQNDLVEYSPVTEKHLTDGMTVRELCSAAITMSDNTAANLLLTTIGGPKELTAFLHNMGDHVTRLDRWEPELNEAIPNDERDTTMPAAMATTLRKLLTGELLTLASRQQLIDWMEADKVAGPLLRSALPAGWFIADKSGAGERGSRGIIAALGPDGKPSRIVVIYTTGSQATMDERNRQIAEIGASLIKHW

Vero = experiment: cells; type: functional; details: Chlorocebus sabaeus
[4] = target: T1, Probable nicotinate-nucleotide adenylyltransferase (Staphylococcus aureus (strain N315), UniProt P65502); type: functional, Staphylococcus aureus subsp. aureus N315; details: read-out: IC50_Mean;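 as to IC50 Mean: confirmatory dose-response retesting of NadD inhibitor hits first found in an ultra-high-throughput screen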
T1 sequence (P65502 whole entry, the tested form may be a part): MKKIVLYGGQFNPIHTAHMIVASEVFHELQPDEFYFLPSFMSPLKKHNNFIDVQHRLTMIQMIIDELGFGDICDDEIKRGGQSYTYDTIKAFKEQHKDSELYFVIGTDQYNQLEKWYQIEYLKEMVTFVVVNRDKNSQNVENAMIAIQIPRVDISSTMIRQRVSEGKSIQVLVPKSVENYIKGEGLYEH

CHO = CHO cell viability loss, potency – luminescence, cytotoxicity control for TLR9-MyD88 binding inhibitor project, dose response (AID 588339); type: functional, cell-based, hamster; details: Cricetulus griseus;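 also: CHO cells stably coexpressing TLR9 and MyD88 fusions from primary screen; compound exposure lasted 48 hours before viability readout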
[5] = target: T1, Probable nicotinate-nucleotide adenylyltransferase; type: functional, Staphylococcus aureus subsp. aureus N315
Streptococcus = experiment: GAS UMAA2166 growth inhibition – luminescence, BacTiterGlo, counter-screen for streptokinase expression inhibitor project, dose response (AID 1915); type: functional, organism-based;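 also: potency for reduction of bacterial viability or growth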
Escherichia coli = experiment: microbe, parasite or virus in culture
[6] = test system: Streptococcus sp. 'group A'; experiment: Streptococcus pyogenes SK(-)GAS viability under kanamycin – luminescence, BacTiterGlo, confirmation, counter-screen for streptokinase expression inhibitor project, dose response (AID 1900); type: functional, organism-based
Streptokinase A = target: T2, Streptokinase A (Streptococcus pyogenes serotype M1, UniProt P10520); experiment: viability-normalized secreted streptokinase activity reduction – plasminogen activation absorbance, OD405, dose response (AID 1914); type: functional, Streptococcus pyogenes M1 GAS;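 also: secreted streptokinase activity via plasminogen activation per viability signal from cell pellet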
T2 sequence (P10520 whole entry): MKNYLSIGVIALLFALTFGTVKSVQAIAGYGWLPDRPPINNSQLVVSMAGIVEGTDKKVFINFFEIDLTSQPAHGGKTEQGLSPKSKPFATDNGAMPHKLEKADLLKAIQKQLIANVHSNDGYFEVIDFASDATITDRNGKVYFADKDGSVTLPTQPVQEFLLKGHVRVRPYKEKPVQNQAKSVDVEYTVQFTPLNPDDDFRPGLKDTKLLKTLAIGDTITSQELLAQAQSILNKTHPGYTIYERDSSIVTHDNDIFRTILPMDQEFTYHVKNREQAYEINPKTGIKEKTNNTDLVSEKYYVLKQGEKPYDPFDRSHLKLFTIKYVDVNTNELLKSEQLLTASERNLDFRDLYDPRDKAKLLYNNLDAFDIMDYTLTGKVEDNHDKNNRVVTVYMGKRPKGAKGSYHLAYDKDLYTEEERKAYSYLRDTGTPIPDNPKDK

[7] = target: T3, Apoptotic protease-activating factor 1 (Homo sapiens, UniProt O14727); experiment: SAR analysis of small molecule inhibitors of Apaf-1 in a Fluorescent assay.; type: functional; details: read-out: IC50_Mean
T3 sequence (O14727 whole entry): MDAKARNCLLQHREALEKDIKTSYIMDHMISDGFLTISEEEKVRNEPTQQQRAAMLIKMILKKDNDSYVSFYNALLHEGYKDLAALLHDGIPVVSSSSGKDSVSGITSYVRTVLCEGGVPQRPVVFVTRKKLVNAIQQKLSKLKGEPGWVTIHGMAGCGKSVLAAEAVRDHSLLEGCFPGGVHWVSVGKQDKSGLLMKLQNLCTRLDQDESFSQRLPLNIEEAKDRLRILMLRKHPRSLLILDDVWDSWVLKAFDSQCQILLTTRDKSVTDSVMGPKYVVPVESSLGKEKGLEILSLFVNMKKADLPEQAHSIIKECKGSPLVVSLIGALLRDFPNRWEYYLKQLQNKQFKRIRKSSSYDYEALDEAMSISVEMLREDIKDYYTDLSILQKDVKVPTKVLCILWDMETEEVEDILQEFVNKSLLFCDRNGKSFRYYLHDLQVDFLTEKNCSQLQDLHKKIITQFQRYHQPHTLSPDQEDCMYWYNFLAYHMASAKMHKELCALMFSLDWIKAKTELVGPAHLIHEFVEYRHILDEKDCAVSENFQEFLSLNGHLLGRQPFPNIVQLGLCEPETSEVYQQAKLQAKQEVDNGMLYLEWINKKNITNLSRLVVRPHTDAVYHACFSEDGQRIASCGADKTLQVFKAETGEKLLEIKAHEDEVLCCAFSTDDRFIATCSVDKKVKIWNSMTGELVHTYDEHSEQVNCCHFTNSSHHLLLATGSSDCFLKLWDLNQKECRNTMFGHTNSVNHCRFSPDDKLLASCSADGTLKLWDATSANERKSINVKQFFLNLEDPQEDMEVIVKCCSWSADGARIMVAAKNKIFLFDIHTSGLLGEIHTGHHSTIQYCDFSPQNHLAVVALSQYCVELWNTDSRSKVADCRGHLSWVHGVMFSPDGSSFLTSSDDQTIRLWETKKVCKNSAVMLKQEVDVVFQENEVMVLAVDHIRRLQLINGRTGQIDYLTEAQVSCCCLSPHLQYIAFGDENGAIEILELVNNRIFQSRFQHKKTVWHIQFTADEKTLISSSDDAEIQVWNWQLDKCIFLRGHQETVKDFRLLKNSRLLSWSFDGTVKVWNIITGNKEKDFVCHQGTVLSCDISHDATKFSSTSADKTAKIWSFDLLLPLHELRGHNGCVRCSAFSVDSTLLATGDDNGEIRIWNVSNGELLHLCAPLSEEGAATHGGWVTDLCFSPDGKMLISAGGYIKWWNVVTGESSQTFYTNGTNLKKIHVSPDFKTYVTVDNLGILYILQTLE

[8] = target: T3, Apoptotic protease-activating factor 1; experiment: SAR analysis of small molecule Activators of Apaf-1 in a Fluorescent assay.; type: functional; details: read-out: EC50_Mean
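For EC50 Mean in this document: caspase-3 cleavage of fluorogenic Rh110 DEVD substrate downstream of apoptosome activation.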

Sequence of Voltage-gated inwardly rectifying potassium channel KCNH2 (Q12809 whole entry): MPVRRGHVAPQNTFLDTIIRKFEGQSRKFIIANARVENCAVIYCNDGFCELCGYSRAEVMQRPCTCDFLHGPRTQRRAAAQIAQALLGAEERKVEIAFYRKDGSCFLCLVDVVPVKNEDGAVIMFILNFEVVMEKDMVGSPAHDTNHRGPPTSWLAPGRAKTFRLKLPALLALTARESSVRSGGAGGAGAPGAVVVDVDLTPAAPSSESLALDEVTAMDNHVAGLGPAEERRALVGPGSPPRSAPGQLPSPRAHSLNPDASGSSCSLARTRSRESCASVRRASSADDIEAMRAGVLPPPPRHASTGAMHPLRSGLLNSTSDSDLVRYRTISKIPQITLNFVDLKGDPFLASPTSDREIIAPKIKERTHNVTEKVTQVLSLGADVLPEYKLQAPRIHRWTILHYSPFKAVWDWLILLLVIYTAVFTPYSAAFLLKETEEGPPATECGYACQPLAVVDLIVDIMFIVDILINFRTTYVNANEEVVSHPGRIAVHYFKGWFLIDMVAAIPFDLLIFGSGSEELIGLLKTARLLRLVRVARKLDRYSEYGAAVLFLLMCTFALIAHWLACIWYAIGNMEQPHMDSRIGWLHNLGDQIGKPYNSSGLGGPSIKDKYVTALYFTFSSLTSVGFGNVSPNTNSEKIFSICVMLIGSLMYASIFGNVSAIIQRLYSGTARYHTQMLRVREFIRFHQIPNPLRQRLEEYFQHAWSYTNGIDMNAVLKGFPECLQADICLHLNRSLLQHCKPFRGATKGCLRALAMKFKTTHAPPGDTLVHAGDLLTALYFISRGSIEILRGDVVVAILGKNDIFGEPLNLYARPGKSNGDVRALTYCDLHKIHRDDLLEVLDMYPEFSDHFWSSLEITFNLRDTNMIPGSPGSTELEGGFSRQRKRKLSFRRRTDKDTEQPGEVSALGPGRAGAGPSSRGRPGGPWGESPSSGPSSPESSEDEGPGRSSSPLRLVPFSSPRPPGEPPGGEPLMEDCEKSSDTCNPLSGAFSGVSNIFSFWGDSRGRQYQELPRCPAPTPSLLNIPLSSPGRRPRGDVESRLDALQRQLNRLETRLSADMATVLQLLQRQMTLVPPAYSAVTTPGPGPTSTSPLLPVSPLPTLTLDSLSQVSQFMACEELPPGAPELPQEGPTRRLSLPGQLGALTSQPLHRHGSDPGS

Q: With `NC(Cc1ccc(N(CCCl)CCCl)cc1)C(=O)O` (configuration not stated) [SARCOLYSIN] as the compound, how does the AC50 [1] read?
A: 35.5 µM (inconclusive)

Q: With `COc1cccc(-c2sc3ccc(OC)cc3c2-c2ccc(OCCN3CCOCC3)cc2)c1` as the compound, how does the AC50 [2] read?
A: 3.73 µM (inconclusive)

Q: And the AC50 [3]?
A: 2.09 µM (active)

Q: With `COc1cc(/C=C/c2ccc3c(Br)cc(Br)c(O)c3n2)ccc1O` as the compound, how does the IC50 (Beta Lactamase) read?
A: 7.68 µM (active)

Q: What about the CC50 (Vero) of the same compound?
A: 13.4 µM (active)

Q: And the IC50 [4]?
A: 44.9 µM (active)

Q: What about the IC50 (CHO) of the same compound?
A: 7.79 µM (active)

Q: And the IC50 [5]?
A: 10.1 µM (active)

Q: Which EC50 (Streptococcus) does the source give for `CC(C)(C)c1ccc(OCC(O)CS(=O)(=O)c2ccccn2)cc1` (configuration not stated) here?
A: > 150 µM (not active)

Q: And the AC50 (Escherichia coli)?
A: 23.7 µM (active)

Q: And the EC50 [6]?
A: > 150 µM (not active)

Q: What about the EC50 (Streptokinase A) of the same compound?
A: > 150 µM (not active)

Q: For `O=C(Nc1ccc2nc(-c3ccc(Br)o3)[nH]c2c1)c1cccs1`, which IC50 [7] is on record?
A: > 100 µM (inactive)

Q: Which AC50 [1] does the source give for `CC(C=O)Cc1ccc(C(C)(C)C)cc1` (configuration not stated) here?
A: 50.1 µM (inconclusive)

Q: Which AC50 [2] does the source give for `Cc1ccc(CSc2ccc(-c3ccc4c(c3)OCO4)nn2)cc1` here?
A: 43.6 µM (active)

Q: What about the AC50 [3] of the same compound?
A: 1.46 µM (active)

Q: For `O=C(O)[C@@H]1COC(c2ccc(F)cc2F)=N1`, which EC50 [8] is on record?
A: > 100 µM (inactive)
